Test results: PMC6691788, “Design and synthesis of phthalazine-based compounds as potent anticancer agents with potential antiangiogenic activity via VEGFR-2 inhibition” (Journal of Enzyme Inhibition and Medicinal Chemistry, 2019)

Assays:
Assay in all cases: NCI 60 cell panel SRB screen
Format in all cases: cell-based
MOLT-4 = details: Homo sapiens
HOP-92 = details: Homo sapiens
NCI-H322M = details: Homo sapiens
NCI-H522 = details: Homo sapiens
COLO 205 = details: Homo sapiens
HCC-2998 = details: Homo sapiens
HCT-15 = details: Homo sapiens
HT29 = details: Homo sapiens, HT-29
KM12 = details: Homo sapiens
LOX IMVI = details: Homo sapiens
MDA-MB-435 = details: Homo sapiens
OVCAR-4 = details: Homo sapiens
UO-31 = details: Homo sapiens
MCF7 = details: Homo sapiens
MDA-MB 231/ATCC = details: Homo sapiens
HS 578T = details: Homo sapiens
BT-549 = details: Homo sapiens
MDA-MB-468 = details: Homo sapiens
Procedure: The human tumor cell lines of the cancer-screening panel were grown in RPMI 1640 medium containing 5% fetal bovine serum and […] L-glutamine. For a typical screening experiment, cells are inoculated into 96 well microtiter plates in 100 ml at plating densities ranging from 5000 to 40,000 cells/well depending on the doubling time of individual cell lines. After cell inoculation, the microtiter plates are incubated at 37 °C, 5% CO2, 95% air and 100%
relative humidity for 24 h prior to addition of experimental drugs. After 24 h, two plates of each cell line are fixed in situ with TCA, to represent a measurement of the cell population for each cell line at the time of drug addition (Tz). Experimental drugs are dissolved in dimethyl sulfoxide at 400-fold the desired final maximum test concentration and stored frozen prior to use. At the time of drug addition, an aliquot of frozen concentrate is thawed and diluted to twice the desired final maximum test concentration with complete medium containing […] Gentamicin. Additional four, 10-fold or ½log serial dilutions are made to provide a total of five drug concentrations plus control. Aliquots of […] of these different drug dilutions are added to the appropriate microtiter wells already containing 100 ml of medium, resulting in the required final drug concentrations. Following drug addition, the plates are incubated for an additional 48 h at 37 °C, 5% CO2, 95% air, and 100% relative humidity. For adherent cells, the assay is terminated by the addition of cold TCA. Cells are fixed in situ by the gentle addition of […] of cold 50% (w/v) TCA (final concentration,10% TCA) and incubated for 60 min at 4 °C. The supernatant is discarded, and the plates are washed five times with tap water and air dried. Sulforhodamine B (SRB) solution (100 ml) at 0.4% (w/v) in 1% acetic acid is added to each well, and plates are incubated for 10 min at room temperature. After staining, unbound dye is removed by washing five times with 1% acetic acid and the plates are air dried. Bound stain is subsequently dissolved with 10 μM trizma base, and the absorbance is read on an automated plate reader at a wavelength of 515 nm. For suspension cells, the methodology is the same except that the assay is terminated by fixing settled cells at the bottom of the wells by gently adding […] of 80% TCA (final concentration, 16% TCA).
Using the seven absorbance measurements [time zero, (Tz), control growth, (C), and test growth in the presence of drug at the five concentration levels (Ti)], the percentage growth is calculated at each of the drug concentrations levels. Percentage growth inhibition is calculated as: [(Ti -Tz)/(C - Tz)] x 100 for concentrations for which Ti>/ ¼ Tz and [(Ti -Tz) / Tz] x100 for concentrations for which Ti <Tz.
Three dose response parameters are calculated for each experimental agent. Growth inhibition of 50% (GI50) is calculated from [(Ti -Tz)/(C - Tz)] x 100 =50, which is the drug concentration resulting in a 50% reduction in the net protein increase (as measured by SRB staining) in control cells during the drug incubation. The drug concentration resulting in total growth inhibition (TGI) is calculated from Ti ¼ Tz. The LC50 (concentration of drug resulting in a 50% reduction in the measured protein at the end of the drug treatment as compared to that at the beginning) indicating a net loss of cells following treatment is calculated from [(Ti - Tz) / Tz] x100 = -50. Values are calculated for each of these three parameters if the level of activity is reached; however, if the effect is not reached or is exceeded, the value for that parameter is expressed as greater or less than the maximum or minimum concentration tested.

[1] = 5 log dose, 48 h, read-out: LC50 (the source's name)

Cc1nnc(Nc2ccc(NC(=O)Nc3ccc(Cl)cc3)cc2)c2ccccc12 [Compound 6e, 1–(4-Chlorophenyl)-3–(4-(4-methylphthalazin-1-ylamino)phenyl)urea]
GI50 (MOLT-4; MOLT-4, 5 log dose): 2.36 µM | IC (TGI) (MOLT-4; MOLT-4, 5 log dose): 6 µM | CC50 (MOLT-4; MOLT-4, 5 log dose, 48 h, read-out: LC50 (the source's name)): > 100 µM | activity at 10 µM (MOLT-4; MOLT-4, single dose 10 μM, read-out: percent cell growth promotion): 9.76% | GI50 (HOP-92; HOP-92, 5 log dose): 2.56 µM | IC (TGI) (HOP-92; HOP-92, 5 log dose): 6.6 µM | CC50 (HOP-92; HOP-92, 5 log dose, 48 h, read-out: LC50 (the source's name)): 42 µM | activity at 10 µM (HOP-92; HOP-92, single dose 10 μM, read-out: percent cell growth promotion): 4.62% | GI50 (NCI-H322M; 5 log dose): 3.31 µM | IC (TGI) (NCI-H322M; 5 log dose): 1.25 µM | CC50 (NCI-H322M; [1]): 69.5 µM | activity at 10 µM (NCI-H322M; single dose 10 μM, read-out: percent cell growth promotion): 47.8% | GI50 (NCI-H522; NCI-H522, 5 log dose): 1.84 µM | IC (TGI) (NCI-H522; NCI-H522, 5 log dose): 3.88 µM | CC50 (NCI-H522; NCI-H522, 5 log dose, 48 h, read-out: LC50 (the source's name)): 8.21 µM | activity at 10 µM (NCI-H522; NCI-H522, single dose 10 μM, read-out: percent cell growth promotion): 30.3% | GI50 (COLO 205; COLO 205, 5 log dose): 2.22 µM | IC (TGI) (COLO 205; COLO 205, 5 log dose): 5.29 µM | CC50 (COLO 205; COLO 205, 5 log dose, 48 h, read-out: LC50 (the source's name)): 19.2 µM | activity at 10 µM (COLO 205; COLO 205, single dose 10 μM, read-out: percent cell growth promotion): 28.2% | GI50 (HCC-2998; HCC-2998, 5 log dose): 2.84 µM | IC (TGI) (HCC-2998; HCC-2998, 5 log dose): 8.09 µM | LC50 (50% lethal concentration) (HCC-2998; HCC-2998, 5 log dose, 48 h): 27.8 µM | activity at 10 µM (HCC-2998; HCC-2998, single dose 10 μM, read-out: percent cell growth promotion): 40.5% | GI50 (HCT-15; HCT-15, 5 log dose): 1.91 µM | IC (TGI) (HCT-15; HCT-15, 5 log dose): 4.53 µM | CC50 (HCT-15; HCT-15, 5 log dose, 48 h, read-out: LC50 (the source's name)): 13.9 µM | activity at 10 µM (HCT-15; HCT-15, single dose 10 μM, read-out: percent cell growth promotion): 6.39% | GI50 (HT29; HT29, 5 log dose): 1.78 µM | IC (TGI) (HT29; HT29, 5 log dose): 3.67 µM | CC50 (HT29; HT29, 5 log dose, 48 h, read-out: LC50 (the source's name)): 7.56 µM | activity at 10 µM (HT29; HT29, single dose 10 μM, read-out: percent cell growth promotion): 2.24% | GI50 (KM12; KM12, 5 log dose): 1.99 µM | IC (TGI) (KM12; KM12, 5 log dose): 4.53 µM | CC50 (KM12; KM12, 5 log dose, 48 h, read-out: LC50 (the source's name)): 11.1 µM | activity at 10 µM (KM12; KM12, single dose 10 μM, read-out: percent cell growth promotion): 14.1% | GI50 (LOX IMVI): 1.75 µM | CC50 (LOX IMVI; [1]): 6.11 µM | IC (TGI) (LOX IMVI; read-out: TGI): 3.27 µM | activity at 10 µM (LOX IMVI; read-out: percent cell growth promotion): -27.3% | GI50 (MDA-MB-435; MDA-MB-435): 1.73 µM | IC (TGI) (MDA-MB-435; MDA-MB-435, read-out: TGI): 3.43 µM | activity at 10 µM (MDA-MB-435; MDA-MB-435, read-out: percent cell growth promotion): -40% | CC50 (MDA-MB-435; MDA-MB-435, 5 log dose, 48 h, read-out: LC50 (the source's name)): 6.81 µM | GI50 (OVCAR-4; OVCAR-4, 5 log dose): 2.79 µM | IC (TGI) (OVCAR-4; OVCAR-4, 5 log dose): 8.36 µM | CC50 (OVCAR-4; OVCAR-4, 5 log dose, 48 h, read-out: LC50 (the source's name)): 58.2 µM | activity at 10 µM (OVCAR-4; OVCAR-4, single dose 10 μM, read-out: percent cell growth promotion): 42.6% | GI50 (UO-31; UO-31, 5 log dose): 2.14 µM | IC (TGI) (UO-31; UO-31, 5 log dose): 6.01 µM | CC50 (UO-31; UO-31, 5 log dose, 48 h, read-out: LC50 (the source's name)): 31.8 µM | activity at 10 µM (UO-31; UO-31, single dose 10 μM, read-out: percent cell growth promotion): 51.2% | GI50 (MCF7; MCF7): 2.21 µM | IC (TGI) (MCF7; MCF7, read-out: TGI): 10.9 µM | activity at 10 µM (MCF7; MCF7, read-out: percent cell growth promotion): 24.9% | CC50 (MCF7; MCF7, 5 log dose, 48 h, read-out: LC50 (the source's name)): 68.7 µM | GI50 (MDA-MB 231/ATCC; MDA-MB-231): 2.38 µM | IC (TGI) (MDA-MB 231/ATCC; MDA-MB-231, read-out: TGI): 5.94 µM | activity at 10 µM (MDA-MB 231/ATCC; MDA-MB-231, read-out: percent cell growth promotion): 23.1% | CC50 (MDA-MB 231/ATCC; MDA-MB-231, MDA-MDA 231/ATCC, 5 log dose, 48 h, read-out: LC50 (the source's name)): 33.9 µM | GI50 (HS 578T; Hs-578T): 2.52 µM | IC (TGI) (HS 578T; Hs-578T, read-out: TGI): 6.4 µM | activity at 10 µM (HS 578T; Hs-578T, read-out: percent cell growth promotion): 3.43% | CC50 (HS 578T; HS 578T, 5 log dose, 48 h, read-out: LC50 (the source's name)): > 100 µM | GI50 (BT-549; BT-549): 2.21 µM | IC (TGI) (BT-549; BT-549, read-out: TGI): 5.55 µM | activity at 10 µM (BT-549; BT-549, read-out: percent cell growth promotion): 11.4% | CC50 (BT-549; BT-549, 5 log dose, 48 h, read-out: LC50 (the source's name)): 66 µM | activity at 10 µM (MDA-MB-468; MDA-MB-468, MDA-MBA-468, single dose 10 μM, read-out: percent cell growth promotion): 6.44% | GI50 (MDA-MB-468; MDA-MB-468, 5 log dose): 2.84 µM | IC (TGI) (MDA-MB-468; MDA-MB-468, 5 log dose): 7.43 µM | CC50 (MDA-MB-468; MDA-MB-468, 5 log dose, 48 h, read-out: LC50 (the source's name)): 36.2 µM
